Molecular target: T1, Met receptor (EGFR/Met chimeric cells, EMR) (Homo sapiens, UniProt P08581)
T1 construct: expressed in transfected cells; the other entry of the earlier key: EGFR (P00533, Epidermal growth factor receptor)
Test: Met Autophosphorylation Assay
Type: biochemical
Procedure, shortened: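 Met phosphorylation was measured by capture ELISA. Lysates (90 μg/100 μl, HNTG plus 1 mM PMSF) from transiently transfected EGFR/Met chimera (EMR) cells were bound for 60 min at room temperature to wells holding rabbit anti-Met (C-28) on goat anti-rabbit coat. Phosphotyrosine was the read-out.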

T1 sequence (P08581 with tags, fused parts or gaps): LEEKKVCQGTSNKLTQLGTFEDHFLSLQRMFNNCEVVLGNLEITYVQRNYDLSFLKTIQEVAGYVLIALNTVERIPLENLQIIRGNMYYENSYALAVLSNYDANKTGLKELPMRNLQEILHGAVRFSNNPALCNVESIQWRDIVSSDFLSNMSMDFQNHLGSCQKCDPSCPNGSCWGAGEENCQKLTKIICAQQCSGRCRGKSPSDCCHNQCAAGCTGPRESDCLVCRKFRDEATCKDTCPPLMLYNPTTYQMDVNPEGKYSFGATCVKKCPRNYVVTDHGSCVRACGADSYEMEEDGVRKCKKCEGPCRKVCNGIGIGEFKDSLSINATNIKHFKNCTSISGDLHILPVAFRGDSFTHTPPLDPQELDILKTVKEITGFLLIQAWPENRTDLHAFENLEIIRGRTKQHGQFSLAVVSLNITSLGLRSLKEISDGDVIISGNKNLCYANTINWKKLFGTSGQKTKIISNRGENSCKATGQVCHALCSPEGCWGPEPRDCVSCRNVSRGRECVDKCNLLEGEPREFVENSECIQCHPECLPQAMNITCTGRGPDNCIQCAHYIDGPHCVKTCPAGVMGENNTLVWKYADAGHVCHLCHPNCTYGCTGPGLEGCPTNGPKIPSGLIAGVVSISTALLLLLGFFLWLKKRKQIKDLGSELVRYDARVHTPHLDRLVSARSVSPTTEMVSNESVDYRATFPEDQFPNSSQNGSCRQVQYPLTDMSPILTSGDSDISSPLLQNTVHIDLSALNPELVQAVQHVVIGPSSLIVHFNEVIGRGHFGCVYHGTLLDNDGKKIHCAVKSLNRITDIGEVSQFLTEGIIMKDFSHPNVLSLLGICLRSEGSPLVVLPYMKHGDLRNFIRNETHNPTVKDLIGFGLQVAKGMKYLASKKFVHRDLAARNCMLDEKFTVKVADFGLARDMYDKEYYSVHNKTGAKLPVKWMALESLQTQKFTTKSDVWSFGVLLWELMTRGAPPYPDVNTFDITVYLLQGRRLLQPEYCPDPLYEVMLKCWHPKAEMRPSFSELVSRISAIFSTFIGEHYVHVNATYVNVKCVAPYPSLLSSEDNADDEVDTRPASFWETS

In order of rising “Met Kinase % Inhibition (P.130)” value:
1. COc1ccc(C=C2C(=O)Nc3c(Br)cc(Br)c(C)c32)c(OC)c1 [10719/H04]  0.7%
2. COc1cc(OC)c(C=C2C(=O)Nc3c(Br)cc(Br)c(C)c32)c(OC)c1 [10719/H06]  1.3%
3. O=C1Nc2ccc(S(=O)(=O)N3CCOCC3)cc2C1=Cc1cccc2ccccc12 [10735/F09]  7.0%
4. O=C1Nc2ccc(S(=O)(=O)Nc3ccc(C(F)(F)F)cc3)cc2C1=Cc1cccc2ccccc12 [10735/E09]  11.3%
5. O=C1Nc2ccc(S(=O)(=O)N3CCOCC3)cc2C1=Cc1ccc(Cl)cc1Cl [10735/F10]  13.0%
6. Cc1ccccc1C=C1C(=O)Nc2ccc(S(=O)(=O)Nc3ccc(C(F)(F)F)cc3)cc21 [10735/E02]  13.2%
7. Cc1c(Br)ccc2c1C(=Cc1ccc(-c3ccccc3)cc1)C(=O)N2 [10735/C11]  14.1%
8. O=C1Nc2ccc(S(=O)(=O)N3CCOCC3)cc2C1=Cc1ccc(-c2ccccc2)cc1 [10735/F11]  16.6%
9. O=C1Nc2ccc(S(=O)(=O)N3CCOCC3)cc2C1=Cc1c(F)cccc1F [10735/F08]  18.5%
10. CNS(=O)(=O)c1ccc2c(c1)C(=Cc1ccc(-c3ccccc3)cc1)C(=O)N2 [10735/D11]  18.5%
11. O=C1Nc2c(Br)cc(Br)cc2C1=Cc1cccc2ccccc12 [10735/A09]  19.2%
12. CCc1c(C)[nH]c(C=C2C(=O)Nc3c(Br)cc(Br)c(C)c32)c1C [10719/H05]  20.9%
13. O=C1Nc2ccc(CCCl)cc2C1=Cc1cccc(C(F)(F)F)c1 [10735/G05]  22.2%
14. CNS(=O)(=O)c1ccc2c(c1)C(=Cc1cccc3ccccc13)C(=O)N2 [10735/D09]  23.0%
15. Cc1c(Br)cc(Br)c2c1C(=Cc1ccc(C(C)(C)C)cc1)C(=O)N2 [10734/H10]  23.5%
16. Cc1c(Br)ccc2c1C(=Cc1cccc3ccccc13)C(=O)N2 [10735/C09]  24.1%
17. O=C1Nc2c(Br)cc(Br)cc2C1=Cc1ccc(-c2ccccc2)cc1 [10735/A11]  24.5%
18. CNS(=O)(=O)c1ccc2c(c1)C(=Cc1c(F)cccc1F)C(=O)N2 [10735/D08]  25.6%
19. CNS(=O)(=O)c1ccc2c(c1)C(=Cc1cc(F)cc(F)c1)C(=O)N2 [10735/D04]  25.6%
20. Cc1ccccc1C=C1C(=O)Nc2ccc(CCCl)cc21 [10735/G02]  26.0%
21. O=C1Nc2ccc(S(=O)(=O)N3CCOCC3)cc2C1=Cc1cccc(C(F)(F)F)c1 [10735/F05]  26.4%
22. Cc1ccccc1C=C1C(=O)Nc2c(Br)cc(Br)cc21 [10735/A02]  26.9%
23. O=C1Nc2ccc(CCCl)cc2C1=Cc1cc(F)cc(F)c1 [10735/G04]  28.8%
24. Cc1ccccc1C=C1C(=O)Nc2ccc(S(=O)(=O)N3CCOCC3)cc21 [10735/F02]  31.2%
25. CNS(=O)(=O)c1ccc2c(c1)C(=Cc1ccccc1C)C(=O)N2 [10735/D02]  32.6%
26. Cc1c(Br)cc(Br)c2c1C(=Cc1ccc([N+](=O)[O-])cc1)C(=O)N2 [10734/H06]  32.7%
27. O=C1Nc2ccc(S(=O)(=O)Nc3ccc(C(F)(F)F)cc3)cc2C1=Cc1cc(C(F)(F)F)cc(C(F)(F)F)c1 [10735/E06]  33.3%
28. CNS(=O)(=O)c1ccc2c(c1)C(=Cc1ccccc1C#N)C(=O)N2 [10735/D07]  33.7%
29. CNS(=O)(=O)c1ccc2c(c1)C(=Cc1cccc(C(F)(F)F)c1)C(=O)N2 [10735/D05]  33.7%
30. CNS(=O)(=O)c1ccc2c(c1)C(=Cc1ccc(Cl)cc1Cl)C(=O)N2 [10735/D10]  35.0%
31. O=C1Nc2ccc(S(=O)(=O)Nc3ccc(C(F)(F)F)cc3)cc2C1=Cc1c(F)cccc1F [10735/E08]  35.7%
32. O=C1Nc2ccc(CCCl)cc2C1=Cc1cc(C(F)(F)F)cc(C(F)(F)F)c1 [10735/G06]  36.1%
33. O=C1Nc2ccc(S(=O)(=O)N3CCOCC3)cc2C1=Cc1ccc(F)c(F)c1 [10735/F03]  36.1%
34. CCOc1ccc(C=C2C(=O)Nc3c(Br)cc(Br)c(C)c32)cc1OC [10719/H02]  36.9%
35. CNS(=O)(=O)c1ccc2c(c1)C(=Cc1cc(C(F)(F)F)cc(C(F)(F)F)c1)C(=O)N2 [10735/D06]  36.9%
36. Cc1c(Br)ccc2c1C(=Cc1ccc(Cl)cc1Cl)C(=O)N2 [10735/C10]  37.8%
37. O=C1Nc2ccc(S(=O)(=O)N3CCOCC3)cc2C1=Cc1cc(C(F)(F)F)cc(C(F)(F)F)c1 [10735/F06]  39.5%
38. N#Cc1ccccc1C=C1C(=O)Nc2ccc(S(=O)(=O)N3CCOCC3)cc21 [10735/F07]  39.7%
39. CNS(=O)(=O)c1ccc2c(c1)C(=Cc1ccc(F)c(F)c1)C(=O)N2 [10735/D03]  41.2%
40. O=C1Nc2c(Br)cc(Br)cc2C1=Cc1ccc(Cl)cc1Cl [10735/A10]  41.4%
41. O=C1Nc2ccc(S(=O)(=O)N3CCOCC3)cc2C1=Cc1cc(F)cc(F)c1 [10735/F04]  41.6%
42. O=C1Nc2ccc(S(=O)(=O)Nc3ccc(C(F)(F)F)cc3)cc2C1=Cc1ccc(Cl)cc1Cl [10735/E10]  41.8%
43. Cc1c(Br)cc(Br)c2c1C(=Cc1ccc([N+](=O)[O-])o1)C(=O)N2 [10718/H11]  44.9%
44. O=C1Nc2c(Br)cc(Br)cc2C1=Cc1cccc(C(F)(F)F)c1 [10735/A05]  46.1%
45. O=C1Nc2ccc(I)cc2C1=Cc1cccc2ccccc12 [10735/B09]  46.8%
46. Cc1c(Br)ccc2c1C(=Cc1cc(C(F)(F)F)cc(C(F)(F)F)c1)C(=O)N2 [10735/C06]  47.0%
47. O=C1Nc2c(Br)cc(Br)cc2C1=Cc1cc(F)cc(F)c1 [10735/A04]  48.0%
48. O=C1Nc2c(Br)cc(Br)cc2C1=Cc1c(F)cccc1F [10735/A08]  50.8%
49. CCN(CC)c1ccc(C=C2C(=O)Nc3c(Br)cc(Br)c(C)c32)c(O)c1 [10734/H05]  51.1%
50. O=C1Nc2c(Br)cc(Br)cc2C1=Cc1ccc(F)c(F)c1 [10735/A03]  53.0%
51. O=C1Nc2ccc(I)cc2C1=Cc1c(F)cccc1F [10735/B08]  53.4%
52. N#Cc1ccccc1C=C1C(=O)Nc2ccc(I)cc21 [10735/B07]  56.0%
53. O=C1Nc2c(Br)cc(Br)cc2C1=Cc1cc(C(F)(F)F)cc(C(F)(F)F)c1 [10735/A06]  58.9%
54. Cc1c(Br)ccc2c1C(=Cc1cccc(C(F)(F)F)c1)C(=O)N2 [10735/C05]  59.4%
55. N#Cc1ccccc1C=C1C(=O)Nc2c(Br)cc(Br)cc21 [10735/A07]  61.9%
56. N#Cc1ccccc1C=C1C(=O)Nc2ccc(S(=O)(=O)Nc3ccc(C(F)(F)F)cc3)cc21 [10735/E07]  64.5%
57. Cc1c(Br)cc(Br)c2c1C(=Cc1cccc(F)c1O)C(=O)N2 [10734/H08]  64.8%
58. Cc1c(Br)cc(Br)c2c1C(=Cc1ccc(O)c(O)c1)C(=O)N2 [10719/H03]  67.0%
59. O=C1Nc2ccc(I)cc2C1=Cc1ccc(-c2ccccc2)cc1 [10735/B11]  69.0%
60. O=C1Nc2ccc(S(=O)(=O)Nc3ccc(C(F)(F)F)cc3)cc2C1=Cc1ccc(F)c(F)c1 [10735/E03]  71.8%
61. Cc1ccccc1C=C1C(=O)Nc2ccc(I)cc21 [10735/B02]  72.4%
62. O=C1Nc2ccc(I)cc2C1=Cc1ccc(F)c(F)c1 [10735/B03]  73.3%
63. O=C1Nc2ccc(I)cc2C1=Cc1ccc(Cl)cc1Cl [10735/B10]  73.3%
64. Cc1c(O)ccc(C=C2C(=O)Nc3c(Br)cc(Br)c(C)c32)c1O [10718/H09]  73.6%
65. O=C1Nc2ccc(S(=O)(=O)Nc3ccc(C(F)(F)F)cc3)cc2C1=Cc1cccc(C(F)(F)F)c1 [10735/E05]  74.8%
66. Cc1c(Br)ccc2c1C(=Cc1cc(F)cc(F)c1)C(=O)N2 [10735/C04]  75.8%
67. Cc1c(Br)cc(Br)c2c1C(=Cc1ccc(O)c(Br)c1)C(=O)N2 [10734/H09]  78.4%
68. O=C1Nc2ccc(I)cc2C1=Cc1cc(F)cc(F)c1 [10735/B04]  79.0%
69. O=C1Nc2ccc(I)cc2C1=Cc1cc(C(F)(F)F)cc(C(F)(F)F)c1 [10735/B06]  82.7%
70. Cc1c(Br)cc(Br)c2c1C(=Cc1cc(Br)cc(Br)c1O)C(=O)N2 [10734/H07]  84.9%
